ChEMBL document CHEMBL1155194, “Synthesis and characterization of environment-sensitive fluorescent ligands for human 5-HT1A receptors with 1-arylpiperazine structure” (J Med Chem, 2009)

The compounds below were run against T1, 5-hydroxytryptamine receptor 1A (Homo sapiens, UniProt P08908) (assay: biochemical).
T1 sequence (P08908 whole entry): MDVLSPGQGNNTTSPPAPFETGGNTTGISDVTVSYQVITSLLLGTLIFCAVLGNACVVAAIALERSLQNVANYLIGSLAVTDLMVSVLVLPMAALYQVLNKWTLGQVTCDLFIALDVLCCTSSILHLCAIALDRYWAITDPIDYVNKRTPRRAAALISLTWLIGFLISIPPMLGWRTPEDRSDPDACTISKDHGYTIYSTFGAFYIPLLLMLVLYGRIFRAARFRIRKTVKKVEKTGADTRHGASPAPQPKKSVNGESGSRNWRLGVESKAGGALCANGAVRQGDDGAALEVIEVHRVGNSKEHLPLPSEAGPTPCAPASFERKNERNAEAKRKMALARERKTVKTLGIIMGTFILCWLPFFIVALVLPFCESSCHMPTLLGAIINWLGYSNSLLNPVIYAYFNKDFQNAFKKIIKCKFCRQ
Description: Displacement of [3H]8-OH-DPAT from human recombinant 5HT1A receptor expressed in HEK293 cells after 120 mins

SMILES	Ki
COc1ccccc1N1CCN(CCN2C(=O)c3ccc(N(C)C)cc3C2=O)CC1	15 nM
COc1ccccc1N1CCN(CCCCN2C(=O)c3ccc(N(C)C)cc3C2=O)CC1	0.5 nM
COc1ccccc1N1CCN(CCCCNS(=O)(=O)c2cccc3c(N(C)C)cccc23)CC1	151 nM
COc1ccccc1N1CCN(CCNS(=O)(=O)c2cccc3c(N(C)C)cccc23)CC1	73 nM
COc1ccccc1N1CCN(CCCCCNS(=O)(=O)c2cccc3c(N(C)C)cccc23)CC1	54 nM
COc1ccccc1N1CCN(CCCNS(=O)(=O)c2cccc3c(N(C)C)cccc23)CC1	29 nM
COc1ccccc1N1CCN(CCCN2C(=O)c3ccc(N(C)C)cc3C2=O)CC1	0.47 nM
COc1ccccc1N1CCN(CCCCCN2C(=O)c3ccc(N(C)C)cc3C2=O)CC1	7.8 nM

The remaining lines, values ahead:

Ki	SMILES
116 nM	COc1ccccc1N1CCN(CCCN2C(=O)c3cccc4c(N)ccc(c34)C2=O)CC1
44 nM	COc1ccccc1N1CCN(CCN2C(=O)c3cccc4c(N)ccc(c34)C2=O)CC1
0.67 nM	COc1ccccc1N1CCN(CCCCCN2C(=O)c3cccc4c(N)ccc(c34)C2=O)CC1
6.8 nM	COc1ccccc1N1CCN(CCCCN2C(=O)c3cccc4c(N)ccc(c34)C2=O)CC1
